# Experimental data from the supplement of paper PMC10307832.
# Compound: O=C(/C=C/c1cccnc1)NCCCCC1CCN(C(=O)c2ccccc2)CC1 [Daporinad] + CS(=O)(=O)CCNCc1ccc(-c2ccc3ncnc(Nc4ccc(OCc5cccc(F)c5)c(Cl)c4)c3c2)o1 [Lapatinib] (partner 2 µM)
# Test: relative viability (nuclei count vs DMSO), 5 days (fraction); higher = more cells survive
# Details: first compound 0.0005 µM
# Procedure, shortened: (§1)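 A single step with final 0.05% Triton X-100, 1% formaldehyde and 1 ug/ml Hoechst fixed the cells and stained nuclei 5 days after treatment. Lung cancer cell lines in 1536-well plates had been treated by pin tool the day after seeding with one drug alone or a fixed anchor-drug dose plus five library-drug doses (not always all listed) in √10 steps, and nuclei were counted on 4× images. Relative viability is the ratio of nuclei in treated wells to nuclei in vehicle wells, taken as the median of duplicate plates.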
row,Cell Line,relative viability
1,NCI-H838,0.998
2,NCI-H1650,0.792
3,EBC-1,0.238
4,NCI-H1703,1.39
5,NCI-H1993,0.78
6,PC-14,0.271
7,NCI-H596,0.941
8,NCI-H2126,0.799
9,EMC-BAC-2,0.93
10,NCI-H2085,0.739
11,Calu-6,1.06

# Same assay, conditions: first compound 0.001581 µM
row,Cell Line,relative viability
1,NCI-H838,1.31
2,NCI-H1650,0.922
3,EBC-1,0.216
4,NCI-H1703,1.22
5,NCI-H1993,0.811
6,PC-14,0.383
7,NCI-H596,1.22
8,NCI-H2126,0.677
9,EMC-BAC-2,0.885
10,NCI-H2085,0.741
11,Calu-6,0.959

# Same assay, conditions: first compound 0.005 µM
row,Cell Line,relative viability
1,NCI-H838,0.966
2,NCI-H1650,0.95
3,EBC-1,0.206
4,NCI-H1703,0.845
5,NCI-H1993,0.977
6,PC-14,0.31
7,NCI-H596,1.08
8,NCI-H2126,0.752
9,EMC-BAC-2,0.846
10,NCI-H2085,0.871
11,Calu-6,0.863

# Same assay, conditions: first compound 0.01581 µM
row,Cell Line,relative viability
1,NCI-H838,0.5
2,NCI-H1650,0.875
3,EBC-1,0.17
4,NCI-H1703,0.402
5,NCI-H1993,0.793
6,PC-14,0.393
7,NCI-H596,0.544
8,NCI-H2126,0.82
9,EMC-BAC-2,0.336
10,NCI-H2085,0.855
11,Calu-6,0.413

# Compound: COc1cc(Nc2ncc(F)c(Nc3ccc4c(n3)NC(=O)C(C)(C)O4)n2)cc(OC)c1OC [R406] + CS(=O)(=O)N1CCN(Cc2cc3nc(-c4cccc5[nH]ncc45)nc(N4CCOCC4)c3s2)CC1 [Pictilisib] (partner 1 µM)
# Test: as above
# Details: first compound 0.08 µM
# Procedure, shortened: as §1
row,Cell Line,relative viability
1,NCI-H838,0.412
2,NCI-H1650,0.645
3,EBC-1,0.462
4,NCI-H1703,0.229
5,NCI-H1993,0.769
6,NCI-H441,0.387
7,PC-14,0.669
8,LCLC-103H,0.462
9,NCI-H596,0.368
10,NCI-H2126,0.508
11,EMC-BAC-2,0.566
12,NCI-H2085,0.413
13,Calu-6,0.861
14,ChaGo-K-1,0.719

# Same assay, conditions: first compound 0.253 µM
row,Cell Line,relative viability
1,NCI-H838,0.689
2,NCI-H1650,0.668
3,EBC-1,0.371
4,NCI-H1703,0.207
5,NCI-H1993,0.814
6,NCI-H441,0.375
7,PC-14,0.835
8,LCLC-103H,0.636
9,NCI-H596,0.362
10,NCI-H2126,0.502
11,EMC-BAC-2,0.58
12,NCI-H2085,0.505
13,Calu-6,0.957
14,ChaGo-K-1,0.917

# Same assay, conditions: first compound 0.8 µM
row,Cell Line,relative viability
1,NCI-H838,0.407
2,NCI-H1650,0.652
3,EBC-1,0.528
4,NCI-H1703,0.278
5,NCI-H1993,0.862
6,NCI-H441,0.544
7,PC-14,0.703
8,LCLC-103H,0.595
9,NCI-H596,0.392
10,NCI-H2126,0.49
11,EMC-BAC-2,0.585
12,NCI-H2085,0.459
13,Calu-6,1.01
14,ChaGo-K-1,0.791

# Same assay, conditions: first compound 2.53 µM
row,Cell Line,relative viability
1,NCI-H838,0.199
2,NCI-H1650,0.148
3,EBC-1,0.26
4,NCI-H1703,0.214
5,NCI-H1993,0.604
6,NCI-H441,0.206
7,PC-14,0.319
8,LCLC-103H,0.403
9,NCI-H596,0.316
10,NCI-H2126,0.437
11,EMC-BAC-2,0.502
12,NCI-H2085,0.482
13,Calu-6,0.585
14,ChaGo-K-1,0.584

# Same assay, conditions: first compound 8 µM
row,Cell Line,relative viability
1,NCI-H838,0.178
2,NCI-H1650,0.122
3,EBC-1,0.162
4,NCI-H1703,0.187
5,NCI-H1993,0.928
6,NCI-H441,0.258
7,PC-14,0.381
8,LCLC-103H,0.356
9,NCI-H596,0.252
10,NCI-H2126,0.493
11,EMC-BAC-2,0.323
12,NCI-H2085,0.37
13,Calu-6,0.369
14,ChaGo-K-1,0.391

# Compound: COc1cc(Nc2ncc(F)c(Nc3ccc4c(n3)NC(=O)C(C)(C)O4)n2)cc(OC)c1OC [R406]
# Test: relative viability (nuclei count vs DMSO), 5 days (fraction); higher = more cells survive
# Details: 0.08 µM
# Procedure, shortened: (§2)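 Hoechst staining, done together with fixation and permeabilisation, marked nuclei for 4× imaging and MetaXpress counting. This followed 5 days without medium change after lung cancer cell lines, kept overnight at 37 °C in 1536-well plates, were pinned with five library-drug doses (not always all listed) spaced by √10 on vehicle-anchored plates. Viability is the ratio of treated-well to vehicle-well nuclei, expressed as a median across plates. Plates passed only at control CV below 25% with at least one doubling.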
row,Cell Line,relative viability
1,NCI-H522,0.889
2,NCI-H2342,1
3,NCI-H838,0.911
4,NCI-H1650,1.02
5,EBC-1,0.99
6,NCI-H1703,0.966
7,NCI-H1993,1.01
8,NCI-H441,0.903
9,PC-14,0.968
10,LCLC-103H,0.889
11,NCI-H596,0.959
12,NCI-H2126,1.05
13,EMC-BAC-2,0.917
14,NCI-H2085,0.99
15,Calu-6,0.98
16,ChaGo-K-1,0.948
17,SW 900,0.798
18,NCI-H1623,0.908
19,NCI-H1648,0.759

# Same assay, conditions: 0.253 µM
row,Cell Line,relative viability
1,NCI-H522,1.1
2,NCI-H2342,0.964
3,NCI-H838,1.08
4,NCI-H1650,1.23
5,EBC-1,1.14
6,NCI-H1703,0.924
7,NCI-H1993,1.09
8,NCI-H441,1.16
9,PC-14,1.18
10,LCLC-103H,1.04
11,NCI-H596,1.22
12,NCI-H2126,1.04
13,EMC-BAC-2,1.13
14,NCI-H2085,1.06
15,Calu-6,1.06
16,ChaGo-K-1,1.12
17,SW 900,1.03
18,NCI-H1623,1.05
19,NCI-H1648,0.614

# Same assay, conditions: 0.8 µM
row,Cell Line,relative viability
1,NCI-H522,1.13
2,NCI-H2342,1.01
3,NCI-H838,1.11
4,NCI-H1650,1.06
5,EBC-1,1.25
6,NCI-H1703,1.21
7,NCI-H1993,0.921
8,NCI-H441,1.31
9,PC-14,1.09
10,LCLC-103H,0.952
11,NCI-H596,1.04
12,NCI-H2126,1.07
13,EMC-BAC-2,1.08
14,NCI-H2085,1.1
15,Calu-6,1.11
16,ChaGo-K-1,0.974
17,SW 900,1.26
18,NCI-H1623,1.11
19,NCI-H1648,1.03

# Same assay, conditions: 2.53 µM
row,Cell Line,relative viability
1,NCI-H522,0.78
2,NCI-H2342,0.916
3,NCI-H838,0.544
4,NCI-H1650,0.212
5,EBC-1,0.877
6,NCI-H1703,0.238
7,NCI-H1993,0.658
8,NCI-H441,0.424
9,PC-14,0.759
10,LCLC-103H,0.84
11,NCI-H596,0.663
12,NCI-H2126,0.918
13,EMC-BAC-2,0.849
14,NCI-H2085,0.823
15,Calu-6,0.724
16,ChaGo-K-1,0.944
17,SW 900,0.166
18,NCI-H1623,0.818
19,NCI-H1648,0.795

# Same assay, conditions: 8 µM
row,Cell Line,relative viability
1,NCI-H522,0.617
2,NCI-H2342,0.93
3,NCI-H838,0.214
4,NCI-H1650,0.155
5,EBC-1,0.481
6,NCI-H1703,0.172
7,NCI-H1993,0.599
8,NCI-H441,0.611
9,PC-14,0.601
10,LCLC-103H,0.579
11,NCI-H596,0.397
12,NCI-H2126,0.849
13,EMC-BAC-2,0.405
14,NCI-H2085,0.736
15,Calu-6,0.503
16,ChaGo-K-1,0.73
17,SW 900,0.293
18,NCI-H1623,0.893
19,NCI-H1648,0.786

# Compound: O=C(/C=C/c1cccnc1)NCCCCC1CCN(C(=O)c2ccccc2)CC1 [Daporinad]
# Test: as above
# Details: 0.0005 µM
# Procedure, shortened: as §2
row,Cell Line,relative viability
1,NCI-H522,1.04
2,NCI-H2342,1.08
3,NCI-H838,0.999
4,NCI-H1650,0.981
5,EBC-1,0.829
6,NCI-H1703,1.03
7,NCI-H1993,0.881
8,NCI-H441,0.898
9,PC-14,0.951
10,LCLC-103H,0.928
11,NCI-H596,0.911
12,NCI-H2126,1.02
13,EMC-BAC-2,1.01
14,NCI-H2085,0.984
15,Calu-6,0.955
16,ChaGo-K-1,1.03
17,SW 900,0.748
18,NCI-H1623,0.822
19,NCI-H1648,0.836

# Same assay, conditions: 0.001581 µM
row,Cell Line,relative viability
1,NCI-H522,0.931
2,NCI-H2342,0.839
3,NCI-H838,1.03
4,NCI-H1650,1.05
5,EBC-1,1.06
6,NCI-H1703,1.2
7,NCI-H1993,0.99
8,NCI-H441,1.13
9,PC-14,1.08
10,LCLC-103H,1.16
11,NCI-H596,1.02
12,NCI-H2126,0.978
13,EMC-BAC-2,1.09
14,NCI-H2085,1.02
15,Calu-6,1.04
16,ChaGo-K-1,0.86
17,SW 900,0.733
18,NCI-H1623,1.15
19,NCI-H1648,0.933

# Same assay, conditions: 0.005 µM
row,Cell Line,relative viability
1,NCI-H522,1.06
2,NCI-H2342,0.952
3,NCI-H838,1.04
4,NCI-H1650,1.07
5,EBC-1,1.03
6,NCI-H1703,1.2
7,NCI-H1993,1.05
8,NCI-H441,1.18
9,PC-14,1.08
10,LCLC-103H,1.04
11,NCI-H596,0.991
12,NCI-H2126,1.03
13,EMC-BAC-2,0.766
14,NCI-H2085,1.08
15,Calu-6,0.917
16,ChaGo-K-1,0.94
17,SW 900,0.864
18,NCI-H1623,0.957
19,NCI-H1648,0.9

# Same assay, conditions: 0.01581 µM
row,Cell Line,relative viability
1,NCI-H522,0.738
2,NCI-H2342,0.974
3,NCI-H838,0.657
4,NCI-H1650,0.848
5,EBC-1,1.08
6,NCI-H1703,0.934
7,NCI-H1993,1.15
8,NCI-H441,1.07
9,PC-14,0.871
10,LCLC-103H,1
11,NCI-H596,0.638
12,NCI-H2126,1.09
13,EMC-BAC-2,0.487
14,NCI-H2085,1.18
15,Calu-6,0.533
16,ChaGo-K-1,0.509
17,SW 900,0.592
18,NCI-H1623,1.05
19,NCI-H1648,0.835
